Results on five molecules are retold here after patent US10471050B2, “2-OXO-1,2-dihydropyridine-3,5-dicarboxamide compounds as bromodomain inhibitors” (GlaxoSmithKline Intellectual Property (No. 2) Limited, priority 2015, dated 2019).

Where only a bound is given, the exact number is not on record here.

One experiment has as its system BRD4 BD2 over BRD4 BD1. The experiment can be described thus: Calculation of selectivity for BRD4 BD2 over BRD4 BD1 from the TR-FRET assays. In kind it is binding, Human. The settings on record: 1 log unit = 10 fold, 2 log unit = 100 fold. How it is done: Bromodomain binding was assessed utilising a time resolved fluorescent resonance energy transfer (TR-FRET) competition assay. To enable this approach a known, high affinity, pan-BET interacting small molecule was labelled with Alexa Fluor® 647, which is a far-red-fluorescent dye (Reference Compound X). Reference Compound X acts as a reporter of bromodomain binding and is the acceptor fluorophore component of the TR-FRET pair. Europium chelate, conjugated to an anti-6*His antibody, was utilised as the donor fluorophore in the TR-FRET pair. The anti-6*His antibody binds selectively to a six Histidine purification epitope added to the amino-terminus of each of the BET tandem bromodomain protein constructs used in this study. […]
The competition of the compounds of formula (I) with Reference Compound X for binding to the BET family (BRD2, BRD3, BRD4 and BRDT) was assessed using protein truncates spanning both bromodomain 1 (BD1) and bromodomain 2 (BD2). […] Utilising a Fluorescence Polarisation approach, binding affinities for each of the single and double mutants for Reference Compound X were determined. […] In the TR-FRET competition assay, Reference Compound X is used at a concentration that is equivalent to the Kd for the non-mutated bromodomain, which ensures that no binding at the mutated bromodomain is detected. […]

For a further experiment, the target named is T1, BRD4 BD2 (Homo sapiens, UniProt O60885, Y97A).
T1 construct: BRD4 (1-477) (Y97A) and (Y390A); made in house; host or cells: E. coli (pET15b vector)
The experiment can be described thus: BRD4 BD2 TR-FRET competition assay. In kind it is binding. The settings on record: single mutant tandem BRD4, read-out: pIC50 in the BRD4 BD2 assay (converted). How it is done:
Bromodomain binding was assessed utilising a time resolved fluorescent resonance energy transfer (TR-FRET) competition assay. To enable this approach a known, high affinity, pan-BET interacting small molecule was labelled with Alexa Fluor® 647, which is a far-red-fluorescent dye (Reference Compound X). Reference Compound X acts as a reporter of bromodomain binding and is the acceptor fluorophore component of the TR-FRET pair. Europium chelate, conjugated to an anti-6*His antibody, was utilised as the donor fluorophore in the TR-FRET pair. […] A TR-FRET signal is generated when the donor and acceptor fluorophores are in close proximity, between 20-80 Å, which is enabled in this assay by binding of Reference Compound X to the bromodomain protein.
In order to generate a TR-FRET signal, donor fluorophore is excited by a laser at λ337 nm, which subsequently leads to emission at λ618 nm. If the acceptor fluorophore is in close proximity then energy transfer can occur, which leads to emission of Alexa Fluor® 647 at λ665 nm. In the presence of competitor compound, Reference Compound X can be displaced from binding to the bromodomain. If displacement occurs, the acceptor fluorophore is no longer in proximity to the donor fluorophore, which prevents fluorescent energy transfer and, subsequently, a loss of Alexa Fluor® 647 emission at λ665 nm.
(§1) The competition of the compounds of formula (I) with Reference Compound X for binding to the BET family (BRD2, BRD3, BRD4 and BRDT) was assessed using protein truncates spanning both bromodomain 1 (BD1) and bromodomain 2 (BD2). In order to monitor differential binding to either BD1 or BD2, single residue mutations of key tyrosines to alanine were made in the acetyl lysine binding pockets. To validate this approach, a double residue mutant tandem domain protein was produced for each of the BET family members. Utilising a Fluorescence Polarisation approach, binding affinities for each of the single and double mutants for Reference Compound X were determined.
Final purification was completed by Superdex 200 prep grade size exclusion column. Purified protein was stored at −80° C. in 20 mM HEPES pH 7.5 and 100 mM NaCl.
All assay components were dissolved in an assay buffer composing of 50 mM HEPES pH7.4, 50 mM NaCl, 5% Glycerol, 1 mM DTT and 1 mM CHAPS. Reference Compound X was diluted, in assay buffer containing 20 nM single mutant, tandem bromodomain protein, to a concentration equivalent to 2*Kd for this bromodomain. The solution containing bromodomain and Reference Compound X was added to dose response dilutions of test compound or DMSO vehicle (a maximum of 0.5% DMSO is used in this assay) in Greiner 384 well black low volume microtitre plates and subsequently incubated for 30 minutes at room temperature. An equal volume of 3 nM of anti-6*His Europium chelate was added to all wells, followed by a further 30 minute incubation at room temperature. TR-FRET was detected using a Perkin Elmer Multimode plate reader, by exciting the donor fluorophore at λ337 nm and subsequently, after a delay of 50 μsecs, measuring emission of the donor and acceptor fluorophores at λ615 nm and λ665 nm, respectively. In order to control these assays, 16 replicates each of uninhibited (DMSO vehicle) and inhibited (10*IC50 concentrations of Example 11 of WO 2011/054846A1) TR-FRET assays were included on every microtitre plate.
cA four parameter curve fit of the following form was then applied: y=a+((b−a)/(1+(10^x/10^c)^d)
Where ‘a’ is the minimum, ‘b’ is the Hill slope, ‘c’ is the pIC50 and ‘d’ is the maximum.

Experiment [1] deals with BET family (BRD2, BRD3, BRD4 and BRDT) tandem bromodomain proteins, Tyr to Ala mutants. Put plainly: Fluorescence Polarisation binding of Reference Compound X to single and double mutant tandem BET proteins. Also noted: species or system Human. How it is done: as §1, with “determined. […] The affinities of the single mutated bromdomain tandem proteins for Reference Compound X were equi-potent with the corresponding non-mutated BET protein. […] In the TR-FRET competition assay, Reference Compound X is used at a concentration that is equivalent to the Kd for the non-mutated bromodomain, which ensures that no binding at the mutated bromodomain is detected.” for “determined.”
Protein production: Recombinant Human Bromodomains [(BRD2 (1-473) (Y113A) and (Y386A), BRD3 (1-435) (Y73A) and (Y348A) BRD4 (1-477) (Y97A) and (Y390A) and BRDT (1-397) (Y66A) and (Y309A)] were expressed in E. coli cells (in pET15b vector for BRD2/3/4 and in pET28a vector for BRDT) with a 6-His tag at the N-terminal. The His-tagged Bromodomain pellet was resuspended in 50 mM HEPES (pH7.5), 300 mM NaCl, 10 mM imidazole & 1 μl/ml protease inhibitor cocktail and extracted from the E. coli cells using sonication and purified using a nickel sepharose high performance column, the proteins were washed and then eluted with a linear gradient of 0-500 mM imidazole with buffer 50 mM HEPES (pH7.5), 150 mM NaCl, 500 mM imidazole, over 20 column volumes. Final purification was completed by Superdex 200 prep grade size exclusion column. Purified protein was stored at −80° C. in 20 mM HEPES pH 7.5 and 100 mM NaCl. Protein identity was confirmed by peptide mass fingerprinting and predicted molecular weight confirmed by mass spectrometry.

Consider `CNC(=O)c1cc(C(=O)NCCCC(=O)O)cn(Cc2ccccc2)c1=O` [Example 44, 4-(1-Benzyl-5-(methylcarbamoyl)-6-oxo-1,6-dihydropyridine-3-carboxamido)butanoic acid], for which the “selectivity for BRD4 BD2 over BRD4 BD1 (BRD4 BD2 pIC50 - BRD4 BD1 pIC50)” value in the experiment with BRD4 BD2 over BRD4 BD1 is less than 1 log unit. Besides, the IC50 on BRD4 BD2 was 0.1 to 1 µM. For the molecule `CNC(=O)c1cc(C(=O)Nc2ccn(C)n2)cn(Cc2ccccc2)c1=O` [Example 51, 1-Benzyl-N^3-methyl-N^5-(1-methyl-1H-pyrazol-3-yl)-2-oxo-1,2-dihydropyridine-3,5-dicarboxamide], the IC50 at BRD4 BD2 is 0.1 to 1 µM. As for `CNC(=O)c1cc(C(=O)NCCc2cnn(C)c2)cn(Cc2ccccc2)c1=O` [Example 52, 1-Benzyl-N^3-methyl-N^5-(2-(1-methyl-1H-pyrazol-4-yl)ethyl)-2-oxo-1,2-dihydropyridine-3,5-dicarboxamide], at BRD4 BD2, the IC50 was 0.1 to 1 µM.

For `CNC(=O)c1cc(C(=O)Nc2cnn(C)c2)cn(Cc2ccccc2)c1=O` [Example 53, 1-Benzyl-N^3-methyl-N^5-(1-methyl-1H-pyrazol-4-yl)-2-oxo-1,2-dihydropyridine-3,5-dicarboxamide], on BRD4 BD2, the IC50 is not above 0.1 µM. Regarding `COc1ccc2c(c1)C(c1ccc(Cl)cc1)=N[C@@H](CC(=O)NCCCCCNC(=O)CCCCCC1(C)/C(=C/C=C/C=C/C3=[N+](CCCCS(=O)(=O)O)c4ccc(S(=O)(=O)O)cc4C3(C)C)N(CCCCS(=O)(=O)[O-])c3ccc(S(=O)(=O)O)cc31)c1nnc(C)n1-2` (some centres unmarked) [Reference Compound X], in experiment [1] (double residue Tyr to Ala mutant tandem protein of each BET family member), the “reduction in Kd, double mutant tandem proteins versus non mutated wild type tandem BET proteins” value is more than 1000 fold. Also, in experiment [1] (single Tyr to Ala mutants), the “affinity of single mutated bromodomain tandem proteins versus corresponding non-mutated BET protein” value is “equi-potent”. The “reduction of Kd of the interaction between the mutated bromodomain and Reference Compound X” value in experiment [1] (single mutation of Tyrosine to Alanine) is recorded as more than 1000 fold.
